Experimental data taken from US20050071891A1, “Repressible sterility of animals” (priority 1999, published 2005).
Where “and” joins values, the source holds several entries; their conditions need not be identical. Equal entries are not always repeated.

How the values were obtained:
ZF4 cells = test: Tet-off system in zebrafish cell culture, EGFP reporter; type: cell-based; details: doxycycline 0.2 μg/ml, 72 h, pTet-Off + pTRE-EGFP cells
Excerpt: The applicant first tested the functionality of the Tet-off system in zebrafish cell cultures. The cell culture was established using ZF4 cells as previously described (Driever and Rangini, 1993). Cells were transfected with the DNAs using Effectene liposomes (Qiagen) according to the manufacturer's instructions. Cells were initially transfected with pTet-Off and placed under neomycin selection for 1 month. Neomycin-resistant cells were then transfected with pTRE-EGFP, and the selection plasmid pTK-Hyg, and placed under hygromycin selection for two weeks. EGFP expression was determined by examining and counting cells with obvious fluorescence and by examination of cell lysates using a fluorometer. Cells were grown in medium with or without doxycycline (0.2 μg/ml) for 72 h prior to assessment of gene expression, or were rinsed of doxycycline and assessed for reporter gene expression 72 h after removal of doxycycline.

P19-pSFM 7 cells [1] = test: Luciferase activity of pSFM 25 in P19 clones stably integrated with pSFM 7; type: cell-based, mouse; details: doxycycline at 1 μg/ml, clone 46
Procedure: Stably integrated P19 clones were obtained by using BioRad Gene Pulser II electroporation system. 30 μg DNA electroporated into 10 million cells under following conditions 960 μF and 0.16 kV in a 0.4 cm cuvette (0.4 kV/cm). The next day normal media were replaced with appropriate selection media (300 μg/ml G418).
Selection of a P19 cell line stably integrated with a goosecoid-dependent TET-OFF transactivator P19 cells were electroporated with pSFM 7 (Goosecoid promoter-TET/OFF) linearised with ApaLI and selected for stable integration.
Table 20 showes the luciferase activities of pSFM 25 (TRE luciferase+) shown in counts per second (cps) of transiently transfected in P19-pSFM 7 cells.
Addition of doxycycline at 1 μg/ml reduced luciferase activity from pSFM 25 in this clone by 90 fold. This clone, containing stably integrated pSFM 7 was therefore designated P19-pSFM 7 and used for further testing.

P19-pSFM 7 cells [2] = test: Expression patterns of reporter constructs in P19-pSFM 7 cells; type: cell-based, mouse; details: transfected into P19-pSFM 7 cells
Procedure: Fluorescent and transmitted light images were acquired using a CCD camera with a microscope. […] The luminescence assays were conducted by using a dark 96 well plate was done by Victor2 from Wallac or by Topcount NXT from Can berra Packard.
The first stage for testing blocker constructs is to set up an appropriate cell system to detect expression of reporter constructs. Initially, either pdsRED-N1 (CMV promoter RFP), pSFM 6 (CMV promoter goosecoid cDNA fused to RFP) or pSFM 24 (TRE EGFP) were transfected into P19-pSFM 7 cells to test the expression patterns of the EGFP, RFP and goosecoid-fused to RFP proteins (FIG. 37). […] In these cases, RFP expression fused to goosecid in the nucleus is expected to be inhibited in the presence of an appropriate blocker.

zBMP2 = test: Injection of zBMP2 antisense and double stranded DNA constructs into zebrafish embryos; type: in vivo; details: 100 μg/ml, 1-4 cell stage embryos
Procedure: All the DNA preparations were appropriately linearized and gel purified (Qiaquick Gel Extraction Kit) before injection. Needles were made from borosilicate glass capillaries with filaments (GC100TF-15, Clark Electromedical instruments) using a P-80PC micropipette puller (Sutter Instrument Co.). The needle was back-filled with purified DNA diluted to 100 ng/μl in 1× injection buffer (10×; 50 mM Tris; 5 mM EDTA; 1M KCl, pH7.2) using a hand pulled pipette. Injections were carried out on a dissection microscope fitted with two, 3-dimensional Narshige MN-151 micromanipulators. Embryos were held in place during injection by a hydraulically (mineral oil) driven holding pipette. Injection of DNA solution was facilitated pneumatically using a 3-way foot operated plunge valve (Festo Engineering), connected between the injection needle holder and nitrogen tank. Injection was performed on one-cell stage embryos, unless specifically indicated otherwise. Injected embryos were incubated and reared as described above.
On confirming the ability of in vitro transcribed BMP2 antisense and double stranded transcripts to disrupt larval development, DNA constructs capable of expressing the antisense and double stranded transcripts in vivo were developed and tested. […]

C[C@H]1c2cccc(O)c2C(=O)C2=C(O)[C@]3(O)C(=O)C(C(N)=O)=C(O)[C@@H](N(C)C)[C@@H]3[C@@H](O)[C@@H]21 [doxycycline, reference compound]
EGFP gene expression relative to cells not exposed to doxycycline (ZF4 cells): approximately 3%
reduction of luciferase activity from pSFM 25 (P19-pSFM 7 cells [1]): 90 fold

pSFM 6: goosecoid cDNA fused to red fluorescent protein in pDSRed1-N1
cellular location of reporter expression (P19-pSFM 7 cells [2]): detected in the nucleus

B1: pzBMP2-ds: zBMP2 promoter drives about 800 bp of zBMP2 cDNA designed to fold back as dsRNA (SEQ ID NO:13) (nucleic acid)
DNA: GAATTCATGAGGAACTTAGGAGACGACGGGAACGCAGACCGGCCACAGCGCTTCCTCCTCCGGAACTGACTGATCATGGTCGCCGTGGTCCGCGCTCTCACGGTGCTGTTGCTCGGTCAGGTGTTGCTGGGAGGTGCCGTTGGACTCATTCCCGAGATCGACCGACGGAAATACAGTGATTCGGGGAGACACACACCGGAGCGAACTGATACAAACTTCCTGAACGAGTTTGAGCTACGCTTGCTCAATATGTTCGGATTGAAGCGAAAACCCACCCCAAGCAAATCGGCAGTGGTCCCTCAGTACATGCTGGACTTGTATTATATGCACTCTGAAAACGATGACCCGAACATTCGGCGCCCGAGGAGCACTATGGGAAAACATGTAGAAAGGGCAGCCAGCAGAGCAAACACGATACGAAGTTTTCATCACGAAGAGGCTTTCGAGGCACTGTCCAGCCTGAAAGGAAAAACAACGCAGCAGTTTTTCTTCAACCTTACCTCCATTCCTGTCGACTGCCGATTTGCTTGGGGTGGGTTTTCGCTTCAATCCGAACATATTGAGCAAGCGTAGCTCAAACTCGTTCAGGAAGTTTGTATCAGTTCGCTCCGGTGTGTGTCTCCCCGAATCACTGTATTTCCGTCGGTCGATCTCGGGAATGAGTCCAACGGCACCTCCCAGCAACACCTGACCGAGCAACAGCACCGTGAGAGCGCGGACCACGGCGACCATGATCAGTCAGTTCCGGAGGAGGAAGCGCTGTGGCCGGTCTGCGTTCCCGTCGTCTCCTAAGTTCCTCATCTGCAGCAATTGGATATCAAGCTTATCGATGATGATCCAGACATGATAAGATACATTGATGAGTTTGGACAAACCNCANCTAGAATGCAGTGAAAAAAATGCTTTATTTGTGAAATTTGTGATGCTATTGCTTTATTTGTAACCATTATAAGCTGCAATAAACAAGTTAACNACAACAATTGCATTCATTTTATGTTTCAGGTTCAGNGGGAGGTGTGGGAGGTTTTTTAAAGCAAGTAAAACCTCTNCAAATGTGGTATGGCTGATTATGATCCTCTAGATCAGATCCACTAGTTCTAGAGCGGCCGCCACCGCGGTGGAGCTC
modifications: Blocker Molecule
Number Deformed (zBMP2): 21 and 22
mortality, percentage (zBMP2): 14.3% and 16.5%
